What was measured:
[1] = biological target: Carbonic anhydrase 1 (Homo sapiens, UniProt P00915); test: Inhibition of human CA1 preincubated for 15 mins by stopped flow CO2 hydration assay
[2] = biological target: Carbonic anhydrase 2 (Homo sapiens, UniProt P00918); test: Inhibition of human CA2 preincubated for 15 mins by stopped flow CO2 hydration assay
[3] = biological target: Carbonic anhydrase 12 (Homo sapiens, UniProt O43570); test: Inhibition of human CA12 preincubated for 15 mins by stopped flow CO2 hydration assay
Carbonic anhydrase 12, sequence (O43570 whole entry): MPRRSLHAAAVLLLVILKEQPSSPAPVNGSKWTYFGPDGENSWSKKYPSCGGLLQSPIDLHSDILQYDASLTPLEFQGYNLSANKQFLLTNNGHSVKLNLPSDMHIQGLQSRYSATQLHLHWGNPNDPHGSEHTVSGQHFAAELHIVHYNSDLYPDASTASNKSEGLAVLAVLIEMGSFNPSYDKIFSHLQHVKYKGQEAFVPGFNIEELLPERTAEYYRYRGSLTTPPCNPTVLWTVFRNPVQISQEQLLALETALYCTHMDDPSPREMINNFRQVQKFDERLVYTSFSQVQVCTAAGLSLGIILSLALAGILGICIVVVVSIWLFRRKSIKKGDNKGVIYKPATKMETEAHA

Carbonic anhydrase 1, sequence (P00915 whole entry): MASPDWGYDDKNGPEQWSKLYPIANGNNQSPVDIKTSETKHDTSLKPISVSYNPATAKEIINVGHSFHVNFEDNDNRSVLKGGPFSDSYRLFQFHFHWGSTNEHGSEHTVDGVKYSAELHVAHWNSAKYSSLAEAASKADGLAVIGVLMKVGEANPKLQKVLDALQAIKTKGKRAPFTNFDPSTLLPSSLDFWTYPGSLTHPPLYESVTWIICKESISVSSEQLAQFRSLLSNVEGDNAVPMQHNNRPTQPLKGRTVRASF

NS(=O)(=O)c1ccc(CCn2c(=S)[nH]c3ccc(F)cc3c2=O)cc1
Ki [1]: 0.212 µM | Ki [2]: 0.0124 µM | Ki [3]: 0.00062 µM

Reference: ChEMBL document CHEMBL3826922, “Synthesis 4-[2-(2-mercapto-4-oxo-4H-quinazolin-3-yl)-ethyl]-benzenesulfonamides with subnanomolar carbonic anhydrase II and XII inhibitory properties” (Bioorg Med Chem, 2016)
